Experimental findings from US9630922B2, “3-spiro-7-hydroxamic acid tetralins as HDAC inhibitors” (Forma Therapeutics, Inc., priority 2015, dated 2017) are described below.

The assay addresses T1, HDAC6 (Homo sapiens, UniProt Q9UBN7).
T1 construct: Full length human recombinant HDAC6 protein was expressed in baculoviral system; made in house; host or cells: baculoviral system
T1 sequence (Q9UBN7 1-1215): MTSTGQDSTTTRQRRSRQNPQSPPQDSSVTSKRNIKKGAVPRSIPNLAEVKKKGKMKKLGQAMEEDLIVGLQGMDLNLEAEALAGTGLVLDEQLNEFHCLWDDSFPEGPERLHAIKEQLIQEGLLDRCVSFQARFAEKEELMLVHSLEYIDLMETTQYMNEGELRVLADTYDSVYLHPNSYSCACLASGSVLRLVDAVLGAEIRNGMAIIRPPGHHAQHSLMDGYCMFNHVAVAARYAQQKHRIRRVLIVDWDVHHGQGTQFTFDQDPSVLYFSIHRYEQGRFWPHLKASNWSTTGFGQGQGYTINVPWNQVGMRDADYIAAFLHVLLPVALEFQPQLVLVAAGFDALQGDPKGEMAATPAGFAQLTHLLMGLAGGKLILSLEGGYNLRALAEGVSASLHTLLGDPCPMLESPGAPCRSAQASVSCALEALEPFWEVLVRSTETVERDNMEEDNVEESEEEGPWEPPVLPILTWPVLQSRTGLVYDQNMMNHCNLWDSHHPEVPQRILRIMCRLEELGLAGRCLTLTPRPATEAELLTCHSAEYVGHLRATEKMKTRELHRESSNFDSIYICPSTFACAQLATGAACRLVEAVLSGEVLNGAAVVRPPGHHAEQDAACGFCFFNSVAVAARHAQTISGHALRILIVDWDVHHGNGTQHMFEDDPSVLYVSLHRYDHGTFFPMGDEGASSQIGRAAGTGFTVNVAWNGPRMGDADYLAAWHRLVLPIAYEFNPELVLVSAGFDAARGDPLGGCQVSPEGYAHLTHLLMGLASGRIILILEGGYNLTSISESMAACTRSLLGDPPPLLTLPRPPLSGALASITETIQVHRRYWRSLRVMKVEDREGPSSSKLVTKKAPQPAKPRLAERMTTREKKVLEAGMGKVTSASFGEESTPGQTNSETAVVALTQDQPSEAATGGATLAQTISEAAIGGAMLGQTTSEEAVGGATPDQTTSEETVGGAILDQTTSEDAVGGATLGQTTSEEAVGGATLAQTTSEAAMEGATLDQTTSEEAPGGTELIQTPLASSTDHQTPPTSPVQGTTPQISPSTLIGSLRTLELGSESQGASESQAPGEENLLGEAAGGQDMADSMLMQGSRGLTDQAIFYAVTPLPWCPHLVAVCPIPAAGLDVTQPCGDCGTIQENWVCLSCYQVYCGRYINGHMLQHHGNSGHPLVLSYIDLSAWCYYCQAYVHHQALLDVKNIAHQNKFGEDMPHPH
The experiment in a line: In vitro Histone Deacetylase Assay (enzymatic HDAC6 electrophoretic mobility shift assay). Conditions: full length human recombinant HDAC6, 1 nM enzyme, 2 μM peptide substrate RHKK(Ac)-NH2, 25° C.; read-out: HDAC6 activity range. The format is biochemical. In a few lines: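 Deacetylation was read by microfluidic mobility shift as product/(substrate+product) peak ratio and normalised to 0% and 100% inhibition controls. Reactions used 1 nM baculovirus-expressed full-length human HDAC6 and 2 μM labelled RHKK(Ac)-NH2 in pH 7.5 HEPES buffer with 1% DMSO at 25 °C. IC50 was from 4-parameter fits of 12 concentrations.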
On the technique in general: In EMSA bound probe runs differently from free probe, usually more slowly.

As for `O=C(NO)c1ccc2c(c1)CC[C@]1(CC(=O)N(Cc3cccnc3)C1)C2` (single isomer, unassigned) [Compound I-226], the IC50 was at most 100 nM. In the case of `COc1ncccc1N1CC[C@@]2(CCc3cc(C(=O)NO)ccc3C2)C1=O` [Compound I-146, (S)-N-hydroxy-1′-(2-methoxypyridin-3-yl)-2′-oxo-3,4-dihydro-1H-spiro[naphthalene-2,3′-pyrrolidine]-6-carboxamide], the IC50 is at most 100 nM. Then `COc1ccccc1N1CC[C@]2(CCc3cc(C(=O)NO)ccc3C2)C1=O` [Compound I-111], with at most 100 nM. As for `O=C(NO)c1ccc2c(c1)CC[C@@]1(CCN(c3ccc(F)c(F)c3)C1=O)C2` [Compound I-155, (S)-1′-(3,4-difluorophenyl)-N-hydroxy-2′-oxo-3,4-dihydro-1H-spiro[naphthalene-2,3′-pyrrolidine]-6-carboxamide], the figure is at most 100 nM; as for `O=C(NO)c1ccc2c(c1)CC[C@]1(CCN(c3cncc(Cl)c3)C1=O)C2` [Compound I-139, (R)-1′-(5-chloropyridin-3-yl)-N-hydroxy-2′-oxo-3,4-dihydro-1H-spiro[naphthalene-2,3′-pyrrolidine]-6-carboxamide], at most 100 nM; as for `O=C(NO)c1ccc2c(c1)CC[C@@]1(CCCN(c3ccccc3)C1=O)C2` (single isomer, unassigned) [Compound I-181], at most 100 nM. `O=C(NO)c1ccc2c(c1)CC[C@@]1(CCN(c3ccccn3)C1=O)C2` [Compound I-21, (S)-N-hydroxy-2′-oxo-1′-(pyridin-2-yl)-3,4-dihydro-1H-spiro[naphthalene-2,3′-pyrrolidine]-6-carboxamide]: the IC50 was at most 100 nM. Consider `O=C(NO)c1ccc2c(c1)CC[C@]1(CCN(c3ccccn3)C1=O)C2` [Compound I-20, (R)-N-hydroxy-2′-oxo-1′-(pyridin-2-yl)-3,4-dihydro-1H-spiro[naphthalene-2,3′-pyrrolidine]-6-carboxamide], for which the IC50 was at most 100 nM.

As for `N#Cc1ccccc1N1CC[C@@]2(CCc3cc(C(=O)NO)ccc3C2)C1=O` [Compound I-174, (S)-1′-(2-cyanophenyl)-N-hydroxy-2′-oxo-3,4-dihydro-1H-spiro[naphthalene-2,3′-pyrrolidine]-6-carboxamide], the IC50 is at most 100 nM. Then `O=C(NO)c1ccc2c(c1)CCC1(CCNC1=O)S2(=O)=O` (stereo not drawn) [Compound I-243, N-hydroxy-2-oxospiro[pyrrolidine-3,2′-thiochromane]-6′-carboxamide 1′,1′-dioxide], with above 500 nM. Then `CS(=O)(=O)c1ccc(CN2CC[C@]3(CCc4cc(C(=O)NO)ccc4C3)C2=O)cc1` [Compound I-88, (R)-N-hydroxy-1′-(4-(methylsulfonyl)benzyl)-2′-oxo-3,4-dihydro-1H-spiro[naphthalene-2,3′-pyrrolidine]-6-carboxamide], with at most 100 nM; and `Cc1ccc(N2CC[C@@]3(CCc4cc(C(=O)NO)ccc4C3)C2=O)c(C)c1` [Compound I-100, (S)-1′-(2,4-dimethylphenyl)-N-hydroxy-2′-oxo-3,4-dihydro-1H-spiro[naphthalene-2,3′-pyrrolidine]-6-carboxamide], with at most 100 nM; and `O=C(NO)c1ccc2c(c1)CCC1(CCN(CC3CCOCC3)C1=O)S2(=O)=O` (stereo not drawn) [Compound I-241, N-hydroxy-2-oxo-1-((tetrahydro-2H-pyran-4-yl)methyl)spiro[pyrrolidine-3,2′-thiochromane]-6′-carboxamide 1′,1′-dioxide], with above 500 nM. As for `O=C(NO)c1ccc2c(c1)CC[C@@]1(CCN(Cc3ccccc3Cl)C1=O)C2` [Compound I-68, (S)-1′-(2-chlorobenzyl)-N-hydroxy-2′-oxo-3,4-dihydro-1H-spiro[naphthalene-2,3′-pyrrolidine]-6-carboxamide], the figure is 100 to 500 nM; as for `O=C(NO)c1ccc2c(c1)CC[C@@]1(CCN(c3cccc(F)c3F)C1=O)C2` [Compound I-156, (S)-1′-(2,3-difluorophenyl)-N-hydroxy-2′-oxo-3,4-dihydro-1H-spiro[naphthalene-2,3′-pyrrolidine]-6-carboxamide], at most 100 nM; as for `O=C(NO)c1ccc2c(c1)CCC1(CC(=O)N(CC(F)(F)F)C1)C2` (single isomer, unassigned) [Compound I-223], at most 100 nM.

Turning to `O=C(NO)c1ccc2c(c1)CC[C@]1(CCN(c3cccc4ccccc34)C1=O)C2` [Compound I-89, (R)-N-hydroxy-1′-(naphthalen-1-yl)-2′-oxo-3,4-dihydro-1H-spiro[naphthalene-2,3′-pyrrolidine]-6-carboxamide], the IC50 is at most 100 nM.

`O=C(NO)c1ccc2c(c1)CC[C@]1(CCN(c3ccccc3)C1=O)C2` [Compound I-26, (R)-N-hydroxy-2′-oxo-1′-phenyl-3,4-dihydro-1H-spiro[naphthalene-2,3′-pyrrolidine]-6-carboxamide]: the IC50 is at most 100 nM.

Regarding `COc1ccc(CCN2CCC3(CCc4cc(C(=O)NO)ccc4C3)C2=O)cc1` (stereo not drawn) [Compound I-4, N-hydroxy-1′-(4-methoxyphenethyl)-2′-oxo-3,4-dihydro-1H-spiro[naphthalene-2,3′-pyrrolidine]-6-carboxamide], the IC50 is at most 100 nM. As for `COc1ncccc1N1CC[C@]2(CCc3cc(C(=O)NO)ccc3C2)C1=O` [Compound I-145, (R)-N-hydroxy-1′-(2-methoxypyridin-3-yl)-2′-oxo-3,4-dihydro-1H-spiro[naphthalene-2,3′-pyrrolidine]-6-carboxamide], the figure is at most 100 nM; as for `O=C(NO)c1ccc2c(c1)CCC1(CCN(CC3CCOCC3)C1=O)O2` (stereo not drawn) [Compound I-234, N-hydroxy-2′-oxo-1′-((tetrahydro-2H-pyran-4-yl)methyl)spiro[chromane-2,3′-pyrrolidine]-6-carboxamide], above 500 nM. As for `O=C(NO)c1ccc2c(c1)CC[C@]1(CCN(Cc3ccncc3)C1=O)C2` [Compound I-14, (R)-N-hydroxy-2′-oxo-1′-(pyridin-4-ylmethyl)-3,4-dihydro-1H-spiro[naphthalene-2,3′-pyrrolidine]-6-carboxamide], the figure is above 500 nM; as for `COCCCN1CC2(CCc3cc(C(=O)NO)ccc3C2)CC1=O` (single isomer, unassigned) [Compound I-219], at most 100 nM; as for `COCCN1CC[C@]2(CCc3cc(C(=O)NO)ccc3C2)C1=O` [Compound I-36, (R )-N-hydroxy-1′-(2-methoxyethyl)-2′-oxo-3,4-dihydro-1H-spiro[naphthalene-2,3′-pyrrolidine]-6-carboxamide], at most 100 nM. As for `O=C(NO)c1ccc2c(c1)CCC1(CCNC1=O)O2` (stereo not drawn) [Compound I-236, N-hydroxy-2′-oxospiro[chromane-2,3′-pyrrolidine]-6-carboxamide], the figure is 100 to 500 nM. On to `COc1cc(N2CC[C@]3(CCc4cc(C(=O)NO)ccc4C3)C2=O)ccn1` [Compound I-149, (R)-N-hydroxy-1′-(2-methoxypyridin-4-yl)-2′-oxo-3,4-dihydro-1H-spiro[naphthalene-2,3′-pyrrolidine]-6-carboxamide], for which the IC50 was at most 100 nM. For the compound `O=C(NO)c1ccc2c(c1)CC[C@@]1(CCNC1=O)C2` [Compound I-28, (S)-N-hydroxy-2′-oxo-3,4-dihydro-1H-spiro[naphthalene-2,3′-pyrrolidine]-6-carboxamide], the IC50 is at most 100 nM.

Regarding `O=C(NO)c1ccc2c(c1)CCC1(CC(=O)N(CC(F)(F)F)C1)C2` (single isomer, unassigned) [Compound I-220], the IC50 was at most 100 nM. Then `CC(C)CN1CCCC2(CCc3cc(C(=O)NO)ccc3C2)C1=O` (single isomer, unassigned) [Compound I-189], with at most 100 nM.

Consider `O=C(NO)c1ccc2c(c1)CC[C@]1(CCN(Cc3ccc(Cl)cc3)C1=O)C2` [Compound I-55, (R)-1′-(4-chlorobenzyl)-N-hydroxy-2′-oxo-3,4-dihydro-1H-spiro[naphthalene-2,3′-pyrrolidine]-6-carboxamide], for which the IC50 is at most 100 nM.
